Literature values as cited in US20050267197A1 (priority 2004, published 2005).

What was measured:
[1] = in vivo
[2] = in vivo; remark: listed apart in the source

## COCc1c(C(C)C)nc(C(C)C)c(/C=C/[C@@H](O)C[C@@H](O)CC(=O)O)c1-c1ccc(F)cc1 [Baycol®, cervastatin]
At recommended initial dose (0.4 mg/day) as well as highest dose (0.8 mg/day)
  deaths linked to the drug: 31 deaths

## CC(C)c1nc(N(C)S(C)(=O)=O)nc(-c2ccc(F)cc2)c1/C=C/[C@@H](O)C[C@@H](O)CC(=O)O [Crestor®, rosuvastatin]
Cited by consumer advocacy group, March 2004
  cases of serious side effects cited: 16 cases

## O=C(O)c1cccnc1 [Niacin]
[1]
  increase of blood levels of HDL cholesterol: up to 35%
  reduction of total cholesterol: up to 15%
  reduction of triglyceride levels: up to 30%
[2]
  patients affected by flushing (redness) of the face and neck: more than three quarters of patients
  patients discontinuing treatment because of adverse effects: more than 40%
